The values that follow come from patent US20220257592A1, “METHODS OF TREATING CANCER” (HOFFMANN-LA ROCHE INC., priority 2019, published 2022).

The nature of this data set: Circulating exposure at steady-state in patients. Format: in vivo, human.

As to `O=C(Nc1n[nH]c2ccc(Cc3cc(F)cc(F)c3)cc12)c1ccc(N2CCNCC2)cc1NC1CCOCC1` [M5], the “circulating M5 exposure as share of corresponding entrectinib exposure” value was determined as 40%.
